According to publication PMC3684613 (PLoS ONE, 2013):
Read-outs that look alike come from different tables or passages of the source.

How the values were obtained:
P. falciparum 3D7 [1] = system: P. falciparum 3D7; design: method as in ChEMBL-NTD; conditions: ref ChEMBL-NTD, cited from earlier work
P. falciparum 3D7 [2] = assay: DAPI stain fluorescent high content imaging assay, P. falciparum 3D7 (confirmatory screen, Avery); conditions: Plasmodium falciparum; for EC50: 3D7, read-out: EC50_nM; for inhibition of growth at 5 µM: 3D7, read-out: percent_inh @ 5 uM
[3] = original screening data, source (GSK, GNF, StJude), several values separated by ';' in order of sources
[4] = values follow the order of the source (GNF; GSK; StJude)

Row | Structure (SMILES) | EC50 (P. falciparum 3D7 [2]) [nM] | inhibition of growth at 5 µM (P. falciparum 3D7 [2]) [%] | also measured
1 | CC(C)(C)c1ccc2c(c1)CN(Cc1ccc(Cl)cc1)CO2 [MMV000442] | 362 | 98 | EC50 (P. falciparum 3D7 [1]; source StJude (SJ ids)): 255 nM
2 | COc1ccccc1CNC(=O)C1c2ccccc2C(=O)N(CC(C)C)C1c1cccs1 (stereo not drawn) [MMV000648] | – | 97 | EC50 (P. falciparum 3D7 [1]; source StJude): 3160 nM
3 | OC1=C2C(=Nc3ccccc3SC2c2ccc(Br)cc2)c2ccccc21 (stereo not drawn) [MMV007127] | 567 | 97 | EC50 (P. falciparum 3D7 [1]; source GNF (GNF-Pf ids)): 337 nM
4 | O=C(Nc1ccc(Cl)cc1C(=O)Nc1ccncc1)c1ccc(Cl)cc1Cl [MMV666057] | – | 94 | EC50 (P. falciparum 3D7 [1]; source GSK): 611 nM
5 | CCCN(CCC)CCCNC(=O)c1cc2c(-c3ccc(OC)c(OC)c3)nn(C)c2s1 [MMV000561] | 1430 | 98 | EC50 (P. falciparum 3D7 [1]; [3]): 4040 nM
6 | CCCCC(O)(c1ccc(Cl)cc1)C(CN1CCOCC1)c1ccc(Cl)cc1 (stereo not drawn) [MMV000619] | 1380 | 98 | EC50 (P. falciparum 3D7 [1]; source StJude (SJ ids)): 4010 nM
7 | N=c1c2ccccc2nnn1-c1cccc(C(F)(F)F)c1 [MMV665923] | – | 83 | EC50 (P. falciparum 3D7 [1]; source GNF (GNF-Pf ids)): 134 nM
8 | CC(=O)c1ccc(NC(=O)CSc2nc(-c3ccccc3Cl)ns2)cc1 [MMV666124] | – | – | EC50 (P. falciparum 3D7 [1]; source GSK (TCMDC ids)): 1130 nM; inhibition at 2.5 µM (P. falciparum 3D7 [2]; 3D7, read-out: % inh. At 2.5 uM): 88%
9 | COc1cc(OC)c(N(C)C(=O)c2cc3c(s2)-c2ccccc2S(=O)(=O)C3)cc1Cl [MMV006427] | 78.2 | 100 | EC50 (P. falciparum 3D7 [1]; source GNF (GNF-Pf id)): 113 nM
10 | FC(F)(F)c1ccc(Nc2nnnc3ccccc23)cc1 [MMV665935] | – | 77 | EC50 (P. falciparum 3D7 [1]; source GNF): 7720 nM; EC50 (P. falciparum 3D7 [1]; source GSK): 692 nM
11 | O=C(CCc1ccco1)NC1CCN(CC2(c3ccc(Cl)cc3)CCC2)CC1 [MMV666108] | 1140 | 96 | EC50 (P. falciparum 3D7 [1]; source GSK): 1450 nM

The next lines start with results.

Row | EC50 (P. falciparum 3D7 [2]) [nM] | Structure (SMILES) | inhibition of growth at 5 µM (P. falciparum 3D7 [2]) [%] | also measured
12 | 370 | CCOc1cc2c(cc1OCC)C(c1cc(OC)c(O)cc1Cl)NCC2 (stereo not drawn) [MMV008956] | 98 | EC50 (P. falciparum 3D7 [1]; source GNF (GNF-Pf id)): 362 nM; EC50 (P. falciparum 3D7 [1]; source GSK (TCMDC id)): 748 nM
13 | 350 | Cc1ccc(Nc2nc(-c3ccccn3)cs2)cc1 [MMV007907] | 79 | EC50 (P. falciparum 3D7 [1]; source GNF): 407 nM
14 | 180 | COc1ccc(Br)cc1C1Nc2ccc3ccccc3c2C2=C1C(=O)CC(c1ccccc1)C2 (stereo not drawn) [MMV020885] | 95 | EC50 (P. falciparum 3D7 [1]; source GSK (TCMDC id)): 590 nM
15 | 1180 | CCOC(=O)C1CCN(C(=O)CN2C(=O)c3ccccc3C2c2c[nH]c3ccccc23)CC1 (stereo not drawn) [MMV011576] | 98 | EC50 (P. falciparum 3D7 [1]; [3]): 519 nM
16 | 512 | CCn1c(CN2CCN(Cc3ccccc3)CC2)nc2cc(NC(=O)c3cccs3)ccc21 [MMV020439] | 97 | EC50 (P. falciparum 3D7 [1]; source GSK (TCMDC id)): 402 nM
17 | 36.8 | c1ccc(Cn2c(N=Nc3c(Nc4ccccc4)ccc4ccccc34)nc3ccccc32)cc1 [MMV666023] | 96 | EC50 (P. falciparum 3D7 [1]; source GNF (GNF-Pf id)): 2730 nM
18 | 584 | CCCCOC(=O)c1ccc(Nc2cc(C)nc3ccc(OC)cc23)cc1 [MMV665797] | 99 | EC50 (P. falciparum 3D7 [1]; source GSK (TCMDC ids)): 640 nM
19 | 106 | CCCCCCOC(=O)C1=C(C)NC(=O)NC1c1ccccc1F (stereo not drawn) [MMV007686] | 95 | EC50 (P. falciparum 3D7 [1]; source GNF (GNF-Pf id)): 6760 nM
20 | 274 | CC1CCN(Cc2ccc(NC(=O)c3cc4ccc5cccnc5c4[nH]3)cc2)CC1 [MMV020549] | 97 | EC50 (P. falciparum 3D7 [1]; source GSK (TCMDC id)): 779 nM
21 | 530 | COc1cccc(O)c1CN1CCC2(CCCN(Cc3ccc(F)cc3)C2)C1 (stereo not drawn) [MMV666061] | 95 | EC50 (P. falciparum 3D7 [1]; source GSK): 865 nM
22 | 536 | CC(=O)c1sc(NC(=O)Nc2ccc(C)cc2C)nc1C [MMV665894] | 64 | EC50 (P. falciparum 3D7 [1]; [4]): 906 nM
23 | 716 | CCCCc1c(CCC)c(=N)c2ccccc2n1C [MMV007764] | 77 | EC50 (P. falciparum 3D7 [1]; [4]): 311 nM
